Test results from US10976310B2, “Ligand identification by co-fractionation” (MAX-PLANCK-GESELLSCHAFT ZUR FÖRDERUNG DER WISSENSCHAFTEN …, priority 2016, dated 2021).
Where “and” joins values, the source holds several entries; their conditions need not be identical. Equal entries are not always repeated.

What was measured:
TIA1 = target: T1, TIA1 (Homo sapiens, UniProt P31483); assay: MST measurement of ligand binding to recombinant TIA1; details: recombinant TIA1, n=3
T1 construct: purchased Origene (Herford, Germany)
T1 sequence (P31483 1-386): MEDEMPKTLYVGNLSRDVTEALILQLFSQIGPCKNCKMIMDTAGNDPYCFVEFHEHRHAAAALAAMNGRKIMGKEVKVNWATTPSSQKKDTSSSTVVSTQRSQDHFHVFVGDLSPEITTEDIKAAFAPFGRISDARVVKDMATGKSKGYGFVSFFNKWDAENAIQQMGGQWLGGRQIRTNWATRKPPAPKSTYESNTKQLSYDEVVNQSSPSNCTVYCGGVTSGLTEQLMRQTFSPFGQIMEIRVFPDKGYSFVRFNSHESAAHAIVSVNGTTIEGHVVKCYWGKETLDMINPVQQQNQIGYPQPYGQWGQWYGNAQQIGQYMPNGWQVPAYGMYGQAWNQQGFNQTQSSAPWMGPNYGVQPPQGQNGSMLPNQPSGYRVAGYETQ
Description: Expecting such a basic role of 2′,3′-cAMP to be conserved, we performed similar analysis with TIA1, the human functional homolog of Rbp47b. TIA1 was labeled and its interaction with 2′,3′-cAMP was determined using MST.
TIA1 protein was purchased from Origene (Herford, Germany). Rbp47b was cloned as a C-terminal GFP fusion (to increase protein solubility) into the E. coli expression vector pDEST14 containing His6-tag at the N-terminal of the Gateway (Karlsruhe, Germany) cassette. Rosetta cells expressing His6-Rbp47b-GFP were grown at 28° C. overnight and next day were moved to Terrific Broth medium supplied with 1% sucrose and relevant antibiotics. Cultures at OD 0.4 were induced by addition of 0.1 mM IPTG and transferred to 16° C. for overnight incubation.
MST measurements were performed using a Monolith NT.115 instrument (NanoTemper, München, Germany). Capillaries were loaded into the instrument as sets of 13-16 point ligand titrations. Proteins (Rb47b and TIA1) were labeled in phosphate buffer (PBS) using Monolith™ protein labeling kit RED-NHS (amine reactive; MO-L001) according to the manufacturers instruction. Excitation was optimized by varying the LED power to yield emission intensities above 200 AU, corresponding to 10-50 nM labeled protein. Monolith power was set to 60%. Ligands [2′,3′-cAMP (Sigma A9376)] and [3′,5′-cAMP (Sigma A6885)] were dissolved in PBS. […]

Rbp47b = target: T2, Rbp47b (Arabidopsis thaliana, UniProt Q0WW84); assay: MST measurement of ligand binding to recombinant Rbp47b; details: His6-Rbp47b from E. coli, n=3
T2 sequence (Q0WW84 1-435): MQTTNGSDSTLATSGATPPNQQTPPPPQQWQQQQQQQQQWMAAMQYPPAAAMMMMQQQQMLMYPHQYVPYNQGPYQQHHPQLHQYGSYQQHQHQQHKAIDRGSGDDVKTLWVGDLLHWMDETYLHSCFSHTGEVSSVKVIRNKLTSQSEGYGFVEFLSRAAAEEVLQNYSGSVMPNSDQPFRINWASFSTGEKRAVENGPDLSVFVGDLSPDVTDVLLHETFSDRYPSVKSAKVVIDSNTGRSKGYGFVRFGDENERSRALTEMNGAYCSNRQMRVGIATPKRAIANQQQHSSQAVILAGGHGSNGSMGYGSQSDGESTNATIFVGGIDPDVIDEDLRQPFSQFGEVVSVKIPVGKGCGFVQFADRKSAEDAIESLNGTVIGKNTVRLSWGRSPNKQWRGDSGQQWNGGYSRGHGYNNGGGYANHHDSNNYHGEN
Description: We therefore attempted to determine the in vitro binding affinity biophysically using micro-scale thermophoresis (MST) (Jerabek-Willemsen et al. (2011) Molecular interaction studies using microscale thermophoresis. Assay Drug Dev Technol 9: 342-353). MST exploits the effect of size, charge, and hydration shell on the movement of molecules in a temperature gradient. Complex formation resulting in alteration of at least one of the three parameters leads to differential movement, from which the binding affinity can be determined. For the purpose of the MST experiment, Rbp47b was expressed in and purified from E. coli. […] The measured Kd value also corresponds to the ˜20 μM concentration of 2′,3′-cAMP measured in the native Arabidopsis lysate (FIG. 11B).
TIA1 protein was purchased from Origene (Herford, Germany). Rbp47b was cloned as a C-terminal GFP fusion (to increase protein solubility) into the E. coli expression vector pDEST14 containing His6-tag at the N-terminal of the Gateway (Karlsruhe, Germany) cassette. […]
Next day, cells were disrupted with an Avestin (Mannheim, Germany) EmulsiFlex C3 homogenizer and the protein was purified using imidazole-gradient purification in Ni-NTA agarose (Qiagen 34080, Hilden, Germany). […] Protein purity was assessed by SDS-PAGE and protein identification was done using western blot using anti-His6 antibodies. […]

Rbp47b self-assembly = target: T3, Rbp47b self-assembly (Arabidopsis thaliana, UniProt Q0WW84); assay: MST measurement of Rbp47b self-assembly; assay type: binding; details: 50 μM 2′,3′-cAMP; in its absence Kd=127.87 nM (128 nM); read-out: Kd of Rbp47b self-assembly in the presence of the ligand
T3 construct: GFP (C, cleaved yes); made in house; host or cells: E. coli Rosetta
T3 sequence (Q0WW84 1-435): T2 sequence (Q0WW84 1-435)
Description: In plants 2′,3′-cAMP levels increase rapidly under wounding stress (Van Damme (2014) (loc. cit.)). To test whether 2′,3′-cAMP level changes in other stress conditions we queried metabolomics date from stress time-course of (Caldana et al. (2011) High-density kinetic analysis of the metabolomic and transcriptomic response of Arabidopsis to eight environmental conditions. Plant J 67: 869-884). Shortly, mature Col-0 rosettes (prior bolting) grown in the control environment, were transferred into combinations of light (low light, high light, darkness) and temperature stress conditions (heat and cold) and sampled in multiple time-points until 24 h following stress onset. […] If the interaction takes place in the cytosol, where both, Rbp47b and 2′,3′-cAMP are present, one would expect that 2′,3′-cAMP might influence stress granules formation, meaning oligomerization of Rbp47b. Due to the lack of commercially available membrane permeable derivative of 2′,3′-cAMP molecule, we were unable to follow stress granules formation in vivo. However we tested this hypothesis directly by determining the oligomerization of Rbp47b in the presence and absence of saturating amounts of 2′,3′-cAMP by MST. […] 2′,3′-cAMP, besides being the degradation product of mRNA, could play a regulatory role by influencing the oligomerization of the Rbp47b protein, in turn influencing the formation of SGs. […]

Q: Which results are given for `Nc1ncnc2c1ncn2[C@@H]1O[C@H](CO)[C@H]2OP(=O)(O)O[C@H]21` [2′,3′-cAMP]?
A: Kd (TIA1): 217000 nM; Kd (Rbp47b): 1020 nM and 1000 nM; Kd (Rbp47b self-assembly): 8.9 nM and 9 nM
